Measured values as given in ChEMBL document CHEMBL6078713, “Synthesis and mechanistic studies of 4-aminoquinoline-Isatin molecular hybrids and Schiff's bases as promising antimicrobial agents” (Eur J Med Chem, 2025).
≈ marks a conversion by molar mass, not a printed value. Calls of active or inactive are those of the source. No cut-off for these calls is given here.

How the values were obtained:
[1] = tested on: Salmonella typhi; assay: Antibacterial activity against Salmonella typhi assessed as diameter of zone of inhibition at 2 times MIC incubated overnight by disk diffusion method; type: functional, Salmonella enterica subsp. enterica serovar Typhi
[2] = tested on: Escherichia coli; assay: Antibacterial activity against Escherichia coli clinical isolate ECJH14 assessed as diameter of zone of inhibition by disk diffusion assay; type: functional
[3] = Hemolytic activity in human RBC assessed as hemolysis at 1000 ug/ml incubated for 1 hr by absorbance based analysis; type: toxicity, cell-based, Erythrocyte; settings: red blood cells (RBC), at 1000 µg/mL, read-out: Activity
[4] = tested on: Escherichia coli; assay: Bacteriostatic activity against Escherichia coli MTCC 443 assessed as reduction in bacterial growth at 0.5 to 2 times MIC measured upto 24 hrs by absorbance based assay; type: functional, organism-based
[5] = tested on: Escherichia coli; assay: Antibacterial activity against Escherichia coli clinical isolate ECJH10 assessed as diameter of zone of inhibition by disk diffusion assay; type: functional
[6] = tested on: Escherichia coli; assay: Antibacterial activity against Escherichia coli clinical isolate ECJH22 assessed as diameter of zone of inhibition by disk diffusion assay; type: functional
[7] = tested on: Escherichia coli; assay: Antibacterial activity against Escherichia coli clinical isolate ECJH25 assessed as diameter of zone of inhibition by disk diffusion assay; type: functional
[8] = tested on: Escherichia coli; assay: Antibacterial activity against Escherichia coli clinical isolate ECJH17 assessed as diameter of zone of inhibition by disk diffusion assay; type: functional
[9] = tested on: Escherichia coli; assay: Antibacterial activity against Escherichia coli MTCC 443 assessed as diameter of zone of inhibition at MIC incubated overnight by disk diffusion method; type: functional
[10] = tested on: Enterococcus faecalis; assay: Antibacterial activity against Enterococcus faecalis MTCC 439 assessed as diameter of zone of inhibition at 2 times MIC incubated overnight by disk diffusion method; type: functional
[11] = tested on: Escherichia coli; assay: Antibacterial activity against Escherichia coli clinical isolate ECJH13 assessed as diameter of zone of inhibition by disk diffusion assay; type: functional
[12] = tested on: Pseudomonas aeruginosa; assay: Antibacterial activity against Pseudomonas aeruginosa MTCC 2453 assessed as diameter of zone of inhibition at 2 times MIC incubated overnight by disk diffusion method; type: functional
[13] = tested on: Staphylococcus aureus; assay: Bacteriostatic activity against Staphylococcus aureus MTCC 902 assessed as reduction in bacterial growth at 0.5 to 2 times MIC measured upto 24 hrs by absorbance based assay; type: functional, organism-based
[14] = tested on: Escherichia coli; assay: Antibacterial activity against Escherichia coli clinical isolate ECJH3 assessed as diameter of zone of inhibition by disk diffusion assay; type: functional
[15] = tested on: Escherichia coli; assay: Antibacterial activity against Escherichia coli clinical isolate ECJH5 assessed as diameter of zone of inhibition by disk diffusion assay; type: functional
[16] = tested on: Escherichia coli; assay: Antibacterial activity against Escherichia coli clinical isolate ECJH6 assessed as diameter of zone of inhibition by disk diffusion assay; type: functional
[17] = tested on: Bacillus subtilis; assay: Antibacterial activity against Bacillus subtilis MTCC 736 assessed as diameter of zone of inhibition at MIC incubated overnight by disk diffusion method; type: functional
[18] = tested on: Escherichia coli; assay: Antibacterial activity against Escherichia coli clinical isolate ECJH18 assessed as diameter of zone of inhibition by disk diffusion assay; type: functional
[19] = tested on: Staphylococcus aureus; assay: Antibacterial activity against Staphylococcus aureus MTCC 902 assessed as inhibition of bacterial growth incubated overnight by serial dilution based spectrophotometer; type: functional
[20] = tested on: Escherichia coli; assay: Antibacterial activity against Escherichia coli clinical isolate ECJH8 assessed as diameter of zone of inhibition by disk diffusion assay; type: functional
[21] = tested on: Escherichia coli; assay: Antibacterial activity against Escherichia coli clinical isolate ECJH9 assessed as diameter of zone of inhibition by disk diffusion assay; type: functional
[22] = tested on: Escherichia coli; assay: Antibacterial activity against Escherichia coli clinical isolate ECJH20 assessed as diameter of zone of inhibition by disk diffusion assay; type: functional
[23] = tested on: Staphylococcus aureus; assay: Antibacterial activity against Staphylococcus aureus MTCC 902 assessed as diameter of zone of inhibition at 0.5 times MIC incubated overnight by disk diffusion method; type: functional
[24] = tested on: Escherichia coli; assay: Antibacterial activity against Escherichia coli clinical isolate ECJH7 assessed as diameter of zone of inhibition by disk diffusion assay; type: functional
[25] = tested on: Escherichia coli; assay: Antibacterial activity against Escherichia coli clinical isolate ECJH16 assessed as diameter of zone of inhibition by disk diffusion assay; type: functional
[26] = tested on: Escherichia coli; assay: Antibacterial activity against Escherichia coli clinical isolate ECJH19 assessed as diameter of zone of inhibition by disk diffusion assay; type: functional
[27] = tested on: Escherichia coli; assay: Antibacterial activity against Escherichia coli clinical isolate ECJH2 assessed as diameter of zone of inhibition by disk diffusion assay; type: functional
[28] = tested on: Bacillus subtilis; assay: Antibacterial activity against Bacillus subtilis MTCC 736 assessed as diameter of zone of inhibition at 2 times MIC incubated overnight by disk diffusion method; type: functional
[29] = tested on: Escherichia coli; assay: Antibacterial activity against Escherichia coli clinical isolate ECJH21 assessed as diameter of zone of inhibition by disk diffusion assay; type: functional
[30] = tested on: Escherichia coli; assay: Antibacterial activity against Escherichia coli clinical isolate ECJH4 assessed as diameter of zone of inhibition by disk diffusion assay; type: functional
[31] = tested on: Escherichia coli; assay: Antibacterial activity against Escherichia coli clinical isolate ECJH1 assessed as diameter of zone of inhibition by disk diffusion assay; type: functional
[32] = tested on: Salmonella typhi; assay: Antibacterial activity against Salmonella typhi assessed as diameter of zone of inhibition at 500 ug/ml by agar disk diffusion method; type: functional, Salmonella enterica subsp. enterica serovar Typhi; settings: Salmonella enterica, read-out: DIZ
[33] = tested on: Escherichia coli; assay: Antibacterial activity against Escherichia coli clinical isolate ECJH12 assessed as diameter of zone of inhibition by disk diffusion assay; type: functional
[34] = tested on: Staphylococcus aureus; assay: Ratio of MBC for antibacterial activity against Staphylococcus aureus MTCC 902 to MIC for bactericidal activity against Staphylococcus aureus MTCC 902; type: functional
[35] = Hemolytic activity in human RBC assessed as hemolysis upto 500 ug/ml incubated for 1 hr by absorbance based analysis; type: toxicity, cell-based, Erythrocyte; settings: red blood cells (RBC), up to 500 µg/mL, read-out: Activity
[36] = tested on: Escherichia coli; assay: Antibacterial activity against Escherichia coli clinical isolate ECJH24 assessed as diameter of zone of inhibition by disk diffusion assay; type: functional
[37] = tested on: Escherichia coli; assay: Antibacterial activity against Escherichia coli clinical isolate ECJH15 assessed as diameter of zone of inhibition by disk diffusion assay; type: functional
[38] = tested on: Staphylococcus aureus; assay: Synergistic antibacterial activity against Staphylococcus aureus MTCC 902 assessed as inhibition of bacterial growth incubated overnight in presence of ciprofloxacin by serial dilution based spectrophotometer; type: functional
[39] = tested on: Bacillus subtilis; assay: Antibacterial activity against Bacillus subtilis MTCC 736 assessed as diameter of zone of inhibition at 0.5 times MIC incubated overnight by disk diffusion method; type: functional
[40] = tested on: Pseudomonas aeruginosa; assay: Antibacterial activity against Pseudomonas aeruginosa MTCC 2453 assessed as diameter of zone of inhibition at 0.5 times MIC incubated overnight by disk diffusion method; type: functional
[41] = tested on: Escherichia coli; assay: Antibacterial activity against Escherichia coli clinical isolate ECJH23 assessed as diameter of zone of inhibition by disk diffusion assay; type: functional
[42] = tested on: Escherichia coli; assay: Antibacterial activity against Escherichia coli clinical isolate ECJH11 assessed as diameter of zone of inhibition by disk diffusion assay; type: functional
[43] = tested on: Enterococcus faecalis; assay: Antibacterial activity against Enterococcus faecalis MTCC 439 assessed as inhibition of bacterial growth at 200 ug/ml incubated overnight by spectrophotometry relative to control; type: functional
[44] = tested on: Staphylococcus aureus; assay: Antibacterial activity against Staphylococcus aureus MTCC 902 assessed as inhibition of bacterial growth at 200 ug/ml incubated overnight by spectrophotometry relative to control; type: functional
[45] = tested on: Bacillus subtilis; assay: Antibacterial activity against Bacillus subtilis MTCC 736 assessed as inhibition of bacterial growth at 200 ug/ml incubated overnight by spectrophotometry relative to control; type: functional

Compound: O=[N+]([O-])c1ccccc1/C=N/CCNc1ccnc2cc(Cl)ccc12
- diameter of the inhibition zone (DIZ) [1]: 8 mm
- diameter of the inhibition zone (DIZ) [2]: 12 mm
- hemolysis at 1 h, 1000 ug/ml [3]: < 20%
- Activity [4]: Active
- diameter of the inhibition zone (DIZ) [5]: 11 mm
- diameter of the inhibition zone (DIZ) [6]: 9 mm
- diameter of the inhibition zone (DIZ) [7]: 11 mm
- diameter of the inhibition zone (DIZ) [8]: 8 mm
- diameter of the inhibition zone (DIZ) [9]: 7 mm
- diameter of the inhibition zone (DIZ) [10]: 12 mm
- diameter of the inhibition zone (DIZ) [11]: 11 mm
- diameter of the inhibition zone (DIZ) [12]: 11 mm
- Activity [13]: Active
- diameter of the inhibition zone (DIZ) [14]: 10 mm
- diameter of the inhibition zone (DIZ) [15]: 12 mm
- diameter of the inhibition zone (DIZ) [16]: 10 mm
- diameter of the inhibition zone (DIZ) [17]: 9 mm
- diameter of the inhibition zone (DIZ) [18]: 11 mm
- MIC [19]: 256 µg/mL (≈ 722 µM)
- diameter of the inhibition zone (DIZ) [20]: 9 mm
- diameter of the inhibition zone (DIZ) [21]: 10 mm
- diameter of the inhibition zone (DIZ) [22]: 10 mm
- diameter of the inhibition zone (DIZ) [23]: 8 mm
- diameter of the inhibition zone (DIZ) [24]: 10 mm
- diameter of the inhibition zone (DIZ) [25]: 10 mm
- diameter of the inhibition zone (DIZ) [26]: 10 mm
- diameter of the inhibition zone (DIZ) [27]: 11 mm
- diameter of the inhibition zone (DIZ) [28]: 11 mm
- diameter of the inhibition zone (DIZ) [29]: 8 mm
- diameter of the inhibition zone (DIZ) [30]: 13 mm
- diameter of the inhibition zone (DIZ) [31]: 11 mm
- zone of inhibition at 500 µg/mL [32]: 12 mm
- diameter of the inhibition zone (DIZ) [33]: 12 mm
- Ratio [34]: 1
- hemolysis at 1 h [35]: < 10%
- diameter of the inhibition zone (DIZ) [36]: 13 mm
- diameter of the inhibition zone (DIZ) [37]: 11 mm
- MIC [38]: 64 µg/mL
- diameter of the inhibition zone (DIZ) [39]: 8 mm
- diameter of the inhibition zone (DIZ) [40]: 7 mm
- diameter of the inhibition zone (DIZ) [41]: 11 mm
- diameter of the inhibition zone (DIZ) [42]: 11 mm

Compound: Clc1ccc2c(NCC/N=C/c3ccc4ccccc4n3)ccnc2c1
- diameter of the inhibition zone (DIZ) [1]: 12 mm
- diameter of the inhibition zone (DIZ) [9]: 11 mm
- diameter of the inhibition zone (DIZ) [10]: 7 mm
- diameter of the inhibition zone (DIZ) [12]: 8 mm
- diameter of the inhibition zone (DIZ) [17]: 6 mm
- MIC [19]: 512 µg/mL (≈ 1420 µM)
- inhibition at 200 µg/mL [43]: 100%
- inhibition at 200 µg/mL [44]: 100%
- diameter of the inhibition zone (DIZ) [28]: 10 mm
- inhibition at 200 µg/mL [45]: 100%
- zone of inhibition at 500 µg/mL [32]: 11 mm
- Ratio [34]: 1
- MIC [38]: 256 µg/mL
